How the values were obtained:
[1] = target: T1, Purine nucleoside phosphorylase (Homo sapiens, UniProt P00491)
T1 sequence (P00491 whole entry): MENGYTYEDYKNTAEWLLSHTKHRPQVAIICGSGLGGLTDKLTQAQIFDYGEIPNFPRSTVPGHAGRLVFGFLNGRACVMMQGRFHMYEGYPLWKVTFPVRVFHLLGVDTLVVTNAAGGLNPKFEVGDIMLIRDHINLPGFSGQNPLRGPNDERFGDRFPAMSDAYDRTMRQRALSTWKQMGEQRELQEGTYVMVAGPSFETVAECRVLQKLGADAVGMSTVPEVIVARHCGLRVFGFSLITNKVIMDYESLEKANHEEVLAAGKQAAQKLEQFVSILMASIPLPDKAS
Description: Inhibition of human purine nucleoside phosphorylase; Initial rate.

[2] = target: T1, Purine nucleoside phosphorylase; remark: listed apart in the source
Description: Equilibrium dissociation constant determined against human purine nucleoside phosphorylase (PNP) after slow-onset inhibition

Row | Ki [1] | SMILES | Ki [2]
1 | 0.22 nM | Nc1nc(O)c2[nH]cc([C@H]3C[C@@H](O)[C@@H](CO)N3)c2n1 | 
2 | 0.25 nM | OC[C@H]1N[C@@H](c2c[nH]c3c(O)ncnc23)C[C@H]1O | 
3 | > 30000 nM | Nc1[nH]cnc2c(C[C@@H]3N[C@H](CO)[C@H](O)C3O)cnc1-2 (stereo partly drawn) | 
4 | 5.9 nM | COC1[C@@H](O)[C@@H](CO)N[C@H]1c1c[nH]c2c(=O)[nH]cnc12 (stereo partly drawn) | 
5 | 415 nM | CCCN1[C@H](CO)[C@H](O)C(O)[C@@H]1c1c[nH]c2c(O)ncnc12 (stereo partly drawn) | 
6 | 4.7 nM | Cn1cc([C@@H]2N[C@H](CO)[C@H](O)C2O)c2ncnc(O)c21 (stereo partly drawn) | 
7 | 24.7 nM | OC[C@H]1N[C@@H](c2c[nH]c3c(S)ncnc23)C(O)[C@H]1O (stereo partly drawn) | 

Continued, compound first:

Row | SMILES | Ki [1] | Ki [2]
8 | Cc1nc2c(O)[nH]cnc-2c1[C@@H]1N[C@H](CO)[C@H](O)C1O (stereo partly drawn) | 10.1 nM | 
9 | C[C@H]1N[C@@H](c2c[nH]c3c(=O)[nH]cnc23)C(O)[C@H]1O (stereo partly drawn) | 25 nM | 
10 | Oc1ncnc2c([C@@H]3N[C@H](CF)[C@H](O)C3O)c[nH]c12 (stereo partly drawn) | 81 nM | 7 nM
11 | OC[C@H]1N[C@@H](c2n[nH]c3c(O)ncnc23)[C@H](O)[C@@H]1O | 1.4 nM | 0.18 nM
12 | Nc1nc2c([C@@H]3N[C@H](CO)[C@@H](O)[C@H]3O)c[nH]c2c(=O)[nH]1 | 0.54 nM | 0.042 nM
13 | OC[C@@H]1CC(O)[C@H](c2c[nH]c3c(O)ncnc23)N1 (stereo partly drawn) | 9.5 nM | 
14 | OC[C@H]1N[C@@H](c2c[nH]c3c(O)ncnc23)C(F)(F)[C@H]1O | 1.4 nM | 
15 | OC[C@H]1N[C@@H](c2c(F)[nH]c3c(O)ncnc23)C(O)[C@H]1O (stereo partly drawn) | 5.6 nM | 0.39 nM
16 | OC[C@H]1N[C@@H](Cc2c[nH]c3c(O)ncnc23)C(O)[C@H]1O (stereo partly drawn) | 250 nM | 
17 | OC[C@@H]1[C@H](O)C(O)CN1Cc1c[nH]c2c(O)ncnc12 (stereo partly drawn) | 2.84 nM | 
18 | COc1[nH]cnc2c([C@@H]3N[C@H](CO)[C@H](O)C3O)cnc1-2 (stereo partly drawn) | 4.7 nM | 
19 | OC[C@@H]1[C@H](O)C(O)CN1c1c[nH]c2c(O)ncnc12 (stereo partly drawn) | 12700 nM | 

From ChEMBL document CHEMBL1144874, “Exploring structure-activity relationships of transition state analogues of human purine nucleoside phosphorylase” (J Med Chem, 2003)
